Laboratory results as given in patent US20250339426A1, “GCN2 MODULATOR FOR TREATING CANCER” (HIBERCELL, INC., priority 2022, published 2025).

Assays:
[1] = system: DLD-1 (human colorectal cancer cells); assay: In vivo tumor growth inhibition, DLD-1 xenograft; parameters: species or system BALB/c nude mice; settings: 5-fluorouracil 75 mg/kg once a week intravenous
Method: DLD-1 (human colorectal cancer cells): Female 6-8 weeks old BALB/c nude mice were inoculated subcutaneously on the right flank with DLD-1 tumor cells (5×10^6) in 0.1 ml of RPMI1640 medium without serum for tumor development. The treatments were started when the mean tumor size reached approximately 195 mm^3 at Day 7 post inoculation and continued until end of study by twice daily oral gavage dosing of HC-7366 at listed doses (vehicle, 0.3 mg/kg HC-7366, 1 mg/kg HC-7366, 3 mg/kg HC-7366, 10 mg/kg HC-7366, or 30 mg/kg HC-7366, FIG. 10). For the time course study, tumors were harvested at Days 4, 7 and 14. Tumors were then used for IHC and RNAseq experiments (see Example 21).
(§1) [formula] • 2.2.2 Tumor Measurements: The measurement of tumor size was conducted three times weekly with a caliper and recorded. The tumor volume (mm^3) was estimated using the formula: TV=a×b^2/2, where “a” and “b” is long and short diameters of a tumor, respectively. Tumor volume was calculated using the formula [tumor volume (mm^3)=π/6×length×width^2).
(§2) Regression was calculated using the formula=100×ΔT/T initial, if ΔT<0. Animals with 0 mm^3 tumor volume (no measurable tumor) for three consecutive measurements were considered as complete responders and animals with 50% tumor regressions were partial responders.
(§3) The effect of DC101 in combination with HC-7366 in DLD-1 tumor-bearing mice was evaluated using protocols analogous to those described in Example 6. Mice were treated with 3 or 30 mg/kg HC-7366, twice daily by oral gavage. DC101 was administered at 20 mg/kg twice weekly and with twice daily dosing via intraperitoneal injection.
as §3, with “5-fluorouracil” for “DC101”, “75” for “20”, “once a week,” for “twice weekly and with”, “daily” for “daily dosing”, “intravenous” for “intraperitoneal”

[2] = system: MV4-11 (human AML cancer cells); assay: In vivo tumor growth inhibition, MV4-11 xenograft; parameters: species or system BALB/c nude mice; settings: venetoclax monotherapy, 50 mg/kg once daily
Method: MV4-11 (human AML cancer cells): Female 6-8 weeks old BALB/c nude mice were inoculated subcutaneously on the right flank with MV4-11 tumor cells (1×10^7) in RPMI 1640 without serum for tumor development. The treatments were started when the mean tumor size reached approximately 150 mm^3 at Day 13 after cell inoculation and continued until end of study by twice daily oral gavage dosing of HC-7366 at listed doses (vehicle, 0.3 mg/kg HC-7366, 1 mg/kg HC-7366, 3 mg/kg HC-7366, 10 mg/kg HC-7366, or 30 mg/kg HC-7366, FIG. 20). For venetoclax combination study, venetoclax was dissolved in 0.5% carboxymethylcellulose (CMC) and co-administered at 50 mg/kg dose once daily (see Example 8).
as §1, §2
MV4-11 tumors were collected at the end of the venetoclax combination study described in Example 6. Tumor growth curves are provided of MV4-11 tumors treated with single agent HC-7366 and venetoclax or combination (FIG. 43).

[3] = system: GCN2 pathway (p-GCN2, ATF4) in HT1080 cells; assay: Western blot analysis of HT1080 cell lysates; format: cell-based, human; settings: 100 nM Halofuginone
Method: The HT1080 cells were harvested and counted and diluted to the desired density. 2 mL of cell suspension was added into each well of 6-well cell culture plate. The plates were transferred into 37° C., 5% CO2 incubator overnight. The cells were treated as described above. The media was aspirated, and cells were washed with ice cold phosphate buffered saline (PBS). Ice cold 1× radioimmunoprecipitation assay (RIPA) lysis buffer supplemented with protease and phosphatase inhibitors was added to the cell pellets, on ice. After 30 min on ice the cell lysates were centrifuged at 4° C., 12,000 rpm for 15 minutes and the supernatant collected. Protein concentration was determined using BCA kit. The cell lysates were mixed with 5× sodium dodecyl sulfate (SDS) loading buffer and denatured at 95° C. for 5 minutes. […] After the electrophoresis was completed, the separated protein was transferred to a nitrocellulose membrane using transblot system for 90 min, 300 mA, then the membrane was blocked with (tris-buffered saline) TBS buffer (5% bovine serum albumin (BSA)) for 1 hr at room temperature. The membrane was exposed to the primary antibodies overnight in cold room in TBS buffer (1% BSA). The membrane was then washed with TBS-Tween for 3×10 min at R/T, incubated with secondary antibodies in TBS buffer (1% BSA) for 1 hr at RT. The membrane was washed with TBS-Tween for 3×10 min at R/T and the imaging was acquired with Li—COR imaging system.

[4] = system: NCI-H1975 (human non-small cell lung cancer cells); assay: In vivo tumor growth inhibition, NCI-H1975 xenograft; parameters: species or system Athymic Nude-Foxn1nu mice
Method: NCI-H1975 (human non-small cell lung cancer cells): Female 7-8 weeks old Athymic Nude-Foxn1nu mice were inoculated subcutaneously on the right flank with NCI-H1975 tumor cells (2.5×10^6) in 0.1 ml of RPMI1640 medium without serum for tumor development. Single agent HC-7366 was dosed at 3 mg/kg, osimertinib at 2.5 mg/kg and dacomitinib at 15 mg/kg. HC-7366 was combined with either osimertinib or dacomitinib. The vehicle for the groups was 0.5% methyl cellulose. The treatments were started when the mean tumor size reached approximately 205 mm^3 at Day 22 post inoculation and continued until end of study. HC-7366 was given twice daily by oral gavage whereas osimertinib or dacomitinib were administered once a day by oral gavage (FIGS. 131 and 133).
as §1, §2

[5] = system: MFE280 (human endometrial cancer cells); assay: In vivo tumor growth inhibition, MFE280 xenograft; parameters: species or system Athymic Nude-Foxn1nu mice; settings: PT2977 1 mg/kg twice daily oral
[6] = system: 786-O (human renal cell carcinoma cancer cells); assay: In vivo tumor growth inhibition, 786-O xenograft; parameters: species or system BALB/c nude mice; settings: PT-2977 single agent, 0.1 mg/kg twice a day oral
Method: 786-O (human renal cell carcinoma cancer cells): Female 6-8 weeks old BALB/c nude mice were inoculated subcutaneously on the right flank with 786-O tumor cells (5×10^6) in 0.1 ml of RPMI1640 medium without serum for tumor development. […] For the DC101 combination study, DC101 (murine monoclonal anti-VEGFR2 antibody) was dosed at 15 mg/kg twice a week by intraperitoneal injection.
as §1, §2
Female 6-8 weeks old BALB/c nude mice were inoculated subcutaneously on the right flank with 786-O tumor cells (5×10^6) in 0.1 ml of RPMI1640 medium without serum for tumor development (see Example 6). […]

Structure (SMILES): O=c1[nH]cc(F)c(=O)[nH]1 [5-fluorouracil, reference compound]
- TGI % [1]: ~68%

Structure (SMILES): CC1(C)CCC(CN2CCN(c3ccc(C(=O)NS(=O)(=O)c4ccc(NCC5CCOCC5)c([N+](=O)[O-])c4)c(Oc4cnc5[nH]ccc5c4)c3)CC2)=C(c2ccc(Cl)cc2)C1 [venetoclax, reference compound]
- TGI [2]: 62%

Structure (SMILES): O=C(CC1NCCCC1O)Cn1cnc2cc(Br)c(Cl)cc2c1=O (centres unmarked) [halofuginone, reference compound]
- GCN2 and ATF4 in cells treated with halofuginone [3]: activation of GCN2 and ATF4

Structure (SMILES): C=CC(=O)Nc1cc(Nc2nccc(-c3cn(C)c4ccccc34)n2)c(OC)cc1N(C)CCN(C)C [osimertinib]
- partial response (animals/group) ([4]; 50% tumor regressions, doses as in study): 1/10
- TGI ([4]; osimertinib 2.5 mg/kg once a day oral): 95%

Structure (SMILES): CS(=O)(=O)c1ccc(Oc2cc(F)cc(C#N)c2)c2c1[C@H](O)[C@H](F)[C@@H]2F [PT-2977, belzutifan, reference compound]
- tumor growth inhibition [5]: 53%
- TGI % [6]: ~70%

Structure (SMILES): COc1cc2ncnc(Nc3ccc(F)c(Cl)c3)c2cc1NC(=O)/C=C/CN1CCCCC1 [dacomitinib]
- TGI % ([4]; dacomitinib alone 15 mg/kg once a day, end of the study, without statistical significance): 36%
